The test addresses T1, GID4 (Uniprot ID: Q81VV7, residues 124-289) (Homo sapiens, UniProt Q8IVV7).
T1 construct: GID4 (Uniprot ID: Q81VV7, residues 124-289)
T1 sequence (Q8IVV7 124-289): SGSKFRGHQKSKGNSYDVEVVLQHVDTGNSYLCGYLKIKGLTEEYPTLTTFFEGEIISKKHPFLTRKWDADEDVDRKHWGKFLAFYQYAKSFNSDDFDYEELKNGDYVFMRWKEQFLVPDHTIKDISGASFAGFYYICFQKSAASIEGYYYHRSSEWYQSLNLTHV
As to the kind of experiment: GID4 competitive binding assay (AlphaScreen, GID4/degron peptide PGLW). As to conditions: 24 nM GID4, 48 nM biotinylated degron peptide PGLW, 4° C., read-out: IC50 (Inhibition of GID4/Degron binding by test compounds). The gist of the method:
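Displacement of biotin-tagged degron tetrapeptide PGLW (48 nM) from C-terminally 6His-tagged GID4 124-289 (24 nM) read by AlphaScreen proximity signal. Compound incubation 2 h, then beads 1 h, all at 4 °C, pH 7.5, 2% DMSO final; background-corrected inhibition fitted with variable slope for IC50.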
For orientation: In Alpha technology, singlet oxygen from a donor bead excites a nearby acceptor bead.
For the compound `CN(C)CCCNC(=O)c1c(F)cc(-c2cc(O)c3ncccc3c2)cc1F` [Compound 314, N-(3-(dimethylamino)propyl)-2,6-difluoro-4-(8-hydroxyquinolin-6-yl)benzamide], the IC50 lay in the range of 500 to 5000 nM.
`CN(C)CCCNC(=O)c1cc(F)c(-c2cc(O)c3ncccc3c2)cc1Cl` [Compound 315, 2-chloro-N-(3-(dimethylamino)propyl)-5-fluoro-4-(8-hydroxyquinolin-6-yl)benzamide]: the IC50 was under 500 nM.
As to `CN(C)CCCNC(=O)c1cc(F)c(-c2cc(O)c3ncccc3c2)cc1F` [Compound 316, N-(3-(dimethylamino)propyl)-2,5-difluoro-4-(8-hydroxyquinolin-6-yl)benzamide], the IC50 is under 500 nM.
Then `CN(C)CCCNC(=O)c1ccc(-c2cc(O)c3ncccc3c2)c(Cl)c1` [Compound 317, 3-chloro-N-(3-(dimethylamino)propyl)-4-(8-hydroxyquinolin-6-yl)benzamide], with 500 to 5000 nM; and `CN(C)CCCNC(=O)c1c(Cl)cc(-c2cc(O)c3ncccc3c2)cc1Cl` [Compound 318, 2,6-dichloro-N-(3-(dimethylamino)propyl)-4-(8-hydroxyquinolin-6-yl)benzamide], with under 500 nM; and `Cc1c(-c2ccc(C(=O)NCCCN(C)C)cc2)cc(O)c2ncccc12` [Compound 319, N-(3-(dimethylamino)propyl)-4-(8-hydroxy-5-methylquinolin-6-yl)benzamide], with 500 to 5000 nM.
Then `Cc1cc(C(=O)NCCCN(C)C)ccc1-c1cc(O)c2ncccc2c1` [Compound 320, N-(3-(dimethylamino)propyl)-4-(8-hydroxyquinolin-6-yl)-3-methylbenzamide], with 500 to 5000 nM.
Take `CN(C)CCCNC(=O)c1ccc(-c2cc3cccnc3c(O)c2Cl)cc1` [Compound 321, 4-(7-chloro-8-hydroxyquinolin-6-yl)-N-(3-(dimethylamino)propyl)benzamide]: the IC50 was under 500 nM.
For the compound `CN(C)CCCNC(=O)c1cc(Cl)c(-c2cc(O)c3ncccc3c2)cc1Cl` [Compound 322, 2,5-dichloro-N-(3-(dimethylamino)propyl)-4-(8-hydroxyquinolin-6-yl)benzamide], the IC50 is under 500 nM.
`CN(C)CCCNC(=O)c1ccc(-c2cc(O)c3ncccc3c2)c(Br)c1` [Compound 323, 3-bromo-N-(3-(dimethylamino)propyl)-4-(8-hydroxyquinolin-6-yl)benzamide]: the IC50 fell in the range of 500 to 5000 nM.
`Oc1cc(C2=CCNCC2)cc2cccnc12` [Compound 324, 6-(1,2,3,6-tetrahydropyridin-4-yl)quinolin-8-ol]: the IC50 was in the range of 500 to 5000 nM.
In the case of `CN(C)CCCNC(=O)c1ccc(-c2cc(O)c3ncccc3c2)c(F)c1` [Compound 325, N-(3-(dimethylamino)propyl)-3-fluoro-4-(8-hydroxyquinolin-6-yl)benzamide], the IC50 was in the range of 500 to 5000 nM.
Then `COc1cc(CNC(=O)c2n[nH]c3ccc(-c4ccc5ccnc(N)c5c4)cc23)ccn1` [Compound 326, 5-(1-aminoisoquinolin-7-yl)-N-((2-methoxypyridin-4-yl)methyl)-1H-indazole-3-carboxamide], with under 500 nM; and `CN(C)CCNC(=O)c1n[nH]c2ccc(-c3ccc4ccnc(N)c4c3)nc12` [Compound 327, 5-(1-aminoisoquinolin-7-yl)-N-(2-(dimethylamino)ethyl)-1H-pyrazolo[4,3-b]pyridine-3-carboxamide], with 500 to 5000 nM.
To `Cn1cc(CNC(=O)c2n[nH]c3ccc(-c4ccc5ccnc(N)c5c4)cc23)cn1` [Compound 328, 5-(1-aminoisoquinolin-7-yl)-N-((1-methyl-1H-pyrazol-4-yl)methyl)-1H-indazole-3-carboxamide] belongs under 500 nM; to `CN(C)CCNC(=O)c1n[nH]c2ccc(-c3ccc4ncnc(N)c4c3)cc12` [Compound 329, 5-(4-aminoquinazolin-6-yl)-N-(2-(dimethylamino)ethyl)-1H-indazole-3-carboxamide], 500 to 5000 nM.
To `CN(C)CCCNC(=O)c1n[nH]c2ccc(-c3ccc4ncnc(N)c4c3)cc12` [Compound 330, 5-(4-aminoquinazolin-6-yl)-N-(3-(dimethylamino)propyl)-1H-indazole-3-carboxamide] belongs 500 to 5000 nM; to `Nc1nccc2ccc(-c3ccc4[nH]nc(C(=O)NCCO)c4c3)cc12` [Compound 331, 5-(1-aminoisoquinolin-7-yl)-N-(2-hydroxyethyl)-1H-indazole-3-carboxamide], under 500 nM; to `COC1CCN(C(=O)c2n[nH]c3ccc(-c4ccc5ccnc(N)c5c4)cc23)CC1` [Compound 332, (5-(1-aminoisoquinolin-7-yl)-1H-indazol-3-yl)(4-methoxypiperidin-1-yl)methanone], under 500 nM.
Consider `Nc1nccc2ccc(-c3ccc4[nH]nc(C(=O)NC[C@H]5CC[C@@H](O)CC5)c4c3)cc12` [Compound 333, 5-(1-aminoisoquinolin-7-yl)-N-((cis-4-hydroxycyclohexyl)methyl)-1H-indazole-3-carboxamide], for which the IC50 is under 500 nM.
Take `CN1CC(CNC(=O)c2n[nH]c3ccc(-c4ccc5ccnc(N)c5c4)cc23)C1` [Compound 334, 5-(1-aminoisoquinolin-7-yl)-N-((1-methylazetidin-3-yl)methyl)-1H-indazole-3-carboxamide]: the IC50 is under 500 nM.
For `CN(C)C1CCN(C(=O)c2n[nH]c3ccc(-c4ccc5ccnc(N)c5c4)cc23)CC1` [Compound 335, (5-(1-aminoisoquinolin-7-yl)-1H-indazol-3-yl)(4-(dimethylamino)piperidin-1-yl)methanone], the IC50 is under 500 nM.
Then `Nc1nccc2ccc(-c3ccc4[nH]nc(C(=O)N5CCC(O)CC5)c4c3)cc12` [Compound 336, (5-(1-aminoisoquinolin-7-yl)-1H-indazol-3-yl)(4-hydroxypiperidin-1-yl)methanone], with under 500 nM.
Then `CN1CCC(CNC(=O)c2n[nH]c3ccc(-c4ccc5ccnc(N)c5c4)cc23)CC1` [Compound 337, 5-(1-aminoisoquinolin-7-yl)-N-((1-methylpiperidin-4-yl)methyl)-1H-indazole-3-carboxamide], with under 500 nM; and `CN1CCC(NC(=O)c2n[nH]c3ccc(-c4ccc5ccnc(N)c5c4)cc23)CC1` [Compound 338, 5-(1-aminoisoquinolin-7-yl)-N-(1-methylpiperidin-4-yl)-1H-indazole-3-carboxamide], with under 500 nM; and `Nc1nccc2ccc(-c3ccc4[nH]nc(C(=O)N5CCC(N)CC5)c4c3)cc12` [Compound 339, (5-(1-aminoisoquinolin-7-yl)-1H-indazol-3-yl)(4-aminopiperidin-1-yl)methanone], with under 500 nM.
For the compound `CN(C)CCCNC(=O)c1cccc(-c2ccc3ccnc(N)c3n2)c1` [Compound 340, 3-(8-amino-1,7-naphthyridin-2-yl)-N-(3-(dimethylamino)propyl)benzamide], the IC50 is over 5000 nM.
Turning to `CN(C)CCNC(=O)c1n[nH]c2ccc(-c3ccc4ccnc(N)c4c3)cc12` [Compound 341, 5-(1-aminoisoquinolin-7-yl)-N-(2-(dimethylamino)ethyl)-1H-indazole-3-carboxamide], the IC50 is under 500 nM.
Then `Nc1nccc2ccc(-c3cc(C(=O)N4CCCC4)cc4c3CCCC4)cc12` [Compound 342, (4-(1-aminoisoquinolin-7-yl)-5,6,7,8-tetrahydronaphthalen-2-yl)(pyrrolidin-1-yl)methanone], with 500 to 5000 nM.
